According to patent US8685462B1, “Whole, leech saliva product and applications thereof” (priority 2012, dated 2014):

Legend:
[1] = system: Cryptococcus neoformans ATCC90112; test: Kirby-Bauer disc diffusion; conditions: reference antibiotic disc, 100 unit
[2] = system: Candida albicans ATCC10231; test: Kirby-Bauer disc diffusion; conditions: reference antibiotic disc, 100 unit
induced-diabetic rats = test: Antihyperglycemic activity: fasting blood glucose in alloxan-induced diabetic rats; format: in vivo, rat

Row | Compound | Zone of inhibition [1] | Zone of inhibition [2] | FBG after two hours of injection (induced-diabetic rats; diabetic rats, s.c., two hours) | difference between normal rats and treated diabetic rats (induced-diabetic rats; either dose) | FBG after 8 hours of treatment (induced-diabetic rats; lower dose of insulin (10 units/kg b.w))
1 | C[C@@H]1[C@H](O)[C@@H](C)/C=C/C=C/CC/C=C/C=C/C=C/C=C/C(O[C@H]2O[C@H](C)[C@@H](O)[C@H](N)[C@@H]2O)CC2O[C@](O)(CC(O)C(O)CCC(O)CC(O)CC(O)CC(=O)O[C@H]1C)CC(O)C2C(=O)O (some centres unmarked) [Nystatin, nystatin] | 9 mm | 10 mm |  |  | 
2 | insulin: insulin from bovine pancreas (≧27 units/mg), suspension in distilled water |  |  | sharp significant decrease | No significant difference | returned to the diabetic state
